Experimental data taken from patent US20160289728A1, “METHOD FOR DETECTING FLUORESCENCE OR ABSORBANCE, METHOD FOR SUPPRESSING BACKGROUND, METHOD FOR MEASURING ADP, METHOD FOR MEASURING ACTIVITY OF ADP-SYNTHESIZING ENZYME, AND METHOD FOR MEASURING ACTIVITY OF GLUCOSYLTRANSFERASE” (The University of Tokyo, priority 2013, published 2016).
Read-outs that look alike come from different tables or passages of the source.

Key:
[1] = molecular target: T1, CMPK1 (Homo sapiens, UniProt P30085); assay: Inhibition of CMPK1 measured by the enzymatic coupling fluorescence method; assay type: biochemical; details: enzymatic coupling with 20 mM N-ethylmaleimide; matched HPLC method
T1 construct: purchased Prospec pKa-002-b
T1 sequence (P30085 1-196): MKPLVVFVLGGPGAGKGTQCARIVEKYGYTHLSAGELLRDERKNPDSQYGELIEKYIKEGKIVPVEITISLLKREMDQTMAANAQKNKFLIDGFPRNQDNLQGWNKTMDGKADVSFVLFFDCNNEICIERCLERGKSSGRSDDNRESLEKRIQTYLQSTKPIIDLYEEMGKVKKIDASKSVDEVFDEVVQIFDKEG
Procedure: Enzyme inhibitory activities of Ap5A (P^1,P^5-Di(adenosine-5′)pentaphosphate) in which inhibitory activities of dictyostelium (Dictyostelium discoideum) on CMP kinase have been reported (J. Biol. Chem, Vol. 265, No. 11, pp. 6339-6345, 1990) on CMPK1 were measured using a method of the present invention. A 0 to 3 mM Ap5A (1 μl) (catalog number D4022 commercially available from Sigma-Aldrich) solution and 50 μM CMP (2 μl) were added to a 384-well microplate, and 200 μM ATP (2 μi), 3 μg/ml CMPK1, and 4 mM DTT were added thereto (a buffer solution composition included 100 mM Tris-HCl (pH 9), 13.5 mM MgCl2, 150 mM KCl, and 0.1% TritonX-100). The result was covered with a plate seal and incubated for 1 hour at 37° C. Then, the result was cooled at room temperature, and the mixed solution for enzymatic coupling (5 μl) containing 20 mM N-ethylmaleimide was added and incubated for 60 minutes at 25° C. in darkness. Then, fluorescence was measured using a plate reader. A group containing no Ap5A was set as a control (an inhibition rate of 0%), a group containing no CMPK1 was set as a control (an inhibition rate of 100%), and inhibition rates of Ap5A of respective concentrations on CMPK1 were calculated.

[2] = tested on: enzymatic coupling reaction; assay: Influence on enzymatic coupling itself (25 μM ADP instead of CMP); assay type: biochemical; details: 25 μM ADP instead of 50 μM CMP
Procedure: In addition, the same operations were performed using 25 μM ADP instead of 50 μM CMP, and an influence of Ap5A on enzymatic coupling itself was studied. In addition, some of the reaction solution after the kinase reaction of CMPK1 was used, an amount of produced CDP was measured by the HPLC analysis method described in Example 14, and an inhibitory activity was determined by an HPLC method.

[3] = molecular target: T2, human FUT7 (Homo sapiens, UniProt Q11130); assay: Inhibition of FUT7 measured by HPLC quantification of produced GDP; assay type: biochemical; details: FUT7 1 μg/ml, read-out: IC50 value, inhibitory activity on FUT7
T2 sequence (Q11130 1-342): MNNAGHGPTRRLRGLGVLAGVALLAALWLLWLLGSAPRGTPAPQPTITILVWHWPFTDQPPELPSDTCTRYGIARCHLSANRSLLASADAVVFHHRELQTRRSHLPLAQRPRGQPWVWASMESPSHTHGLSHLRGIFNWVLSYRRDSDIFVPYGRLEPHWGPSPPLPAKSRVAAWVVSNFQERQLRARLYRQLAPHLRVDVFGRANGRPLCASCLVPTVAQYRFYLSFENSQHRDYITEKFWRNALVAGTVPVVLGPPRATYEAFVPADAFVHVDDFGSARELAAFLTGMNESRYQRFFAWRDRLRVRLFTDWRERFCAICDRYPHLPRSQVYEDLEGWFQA
Procedure: (§1) In addition, the same operations were performed using 50 μM GDP instead of 100 μM GDP-fucose, and an influence of enzymatic coupling itself on gallic acid was studied. In addition, an amount of GDP produced was quantified by HPLC analysis using some of the reaction solution after the FUT7 enzymatic reaction, and an inhibitory activity was determined by an HPLC method.
HPLC conditions were as follows: column: YMC-Triart C18 (commercially available from Ymc Corporation, particle size: 5 μm, and diameter: 4.6 mm×length: 150 mm), eluate: 50 mM KH2PO4—K2HPO4 (10:1), flow rate: 1 ml/min, and detection: UV 260 nm.

[4] = molecular target: T2, human FUT7; details: reported in Arch. Biochem. Biophys, Vol. 425, No. 1, pp. 51-57, 2004; cited from earlier work
[5] = molecular target: T2, human FUT7; assay: Inhibition of FUT7 measured by the enzymatic coupling fluorescence method of the invention; assay type: biochemical; details: method of the present invention, FUT7 1 μg/ml; read-out: IC50 value, inhibitory activity on FUT7
Procedure: 100 μM GDP-fucose (2.5 μl), 6 mg/ml fetuin, and 0 to 4 μg/ml FUT7 (2.5 μl) were added to a 384-well microplate (a buffer solution included 50 mM Tris-HCl (pH 7.5), 5 mM MgCl2, 10 mM MnCl2, and 0.1% Triton X-100), covered with a plate seal (catalog number 1-6774-01 commercially available from AS ONE corporation) and incubated for 1 hour at 37° C. After being cooled to room temperature, the mixed solution A for the first process (5 μl) was added to the result and incubated for 1 hour at 25° C. The mixed solution B for the second process (10 μl) was added to the result, and incubated for 30 minutes at 25° C. Fluorescence thereof was measured similarly to Example 1. A fluorescence value according to an enzyme concentration was confirmed.
When enzyme activities of FUT7 were measured using the method described in Example 4, an inhibitory effect of gallic acid on FUT7 was studied according to the same operations as in Example 4 except that a reaction of FUT7 (a concentration of 1 μg/ml in a transglucosylation solution) was caused in the presence of gallic acid. A group containing no gallic acid was set as a control (an inhibition rate of 0%), a group containing no FUT7 was set as a control (an inhibition rate of 100%), and inhibition rates of gallic acid of respective concentrations of FUT7 were calculated.

[6] = tested on: enzymatic coupling reaction; assay: Influence on enzymatic coupling itself (50 μM GDP instead of GDP-fucose); assay type: biochemical; details: 50 μM GDP instead of 100 μM GDP-fucose
Procedure: as §1

SMILES | inhibitory activity on CMPK1 [1] | inhibition of the enzymatic coupling reaction itself [2] | IC50 [3] | IC50 [4] | IC50 [5] | inhibition of the enzymatic coupling reaction itself [6]
Nc1ncnc2c1ncn2[C@@H]1O[C@H](COP(=O)(O)OP(=O)(O)OP(=O)(O)OP(=O)(O)OP(=O)(O)OC[C@H]2O[C@@H](n3cnc4c(N)ncnc43)[C@H](O)[C@@H]2O)[C@@H](O)[C@H]1O [Ap5A, P^1,P^5-Di(adenosine-5′)pentaphosphate] | inhibition of CMPK1 | did not inhibit the enzymatic coupling reaction itself at all |  |  |  | 
O=C(O)c1cc(O)c(O)c(O)c1 [gallic acid] |  |  | ~10 µM | 5.4 µM | ~10 µM | did not inhibit the enzymatic coupling reaction itself at all
